Data: EP4768484A1, “HETEROCYCLIC FUSED RING COMPOUND, AND COMPOSITION AND USE THEREOF” (Shenzhen TargetRx, Inc., priority 2023, dated 2025)

Columns and labels:
Type in all cases: cell-based
Ba/F3 BCR-ABL1 T315I = target: T1, Ba/F3 BCR-ABL1 T315I (Homo sapiens, UniProt P00519+P11274, T315I); assay: Cell growth inhibitory activity assay (CellTiter-Glo), Ba/F3 BCR-ABL1 T315I cells; conditions: 72 h, CTG cell viability
T1 construct: BCR (N-terminal fusion partner of the oncoprotein); expressed in transfected cells; host or cells: Ba/F3 (lentiviral transduction, monoclonal line)
Outline: (§1)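 Ba/F3 lines stably transduced by lentivirus with WT or mutant BCR-ABL1, alongside untransduced parental Ba/F3, were seeded and incubated overnight at 37 °C, 5% CO2, then exposed to serially diluted compound for 72 h. Viability was read as ATP by CellTiter-Glo luminescence against a day-of-dosing T0 plate; IC50 from four-parameter nonlinear fit.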

Ba/F3 BCR-ABL1 WT = target: T2, Ba/F3 BCR-ABL1 WT (Homo sapiens, UniProt P00519+P11274); assay: Cell growth inhibitory activity assay (CellTiter-Glo), Ba/F3 BCR-ABL1 WT cells; conditions: 72 h, CTG cell viability
T2 construct: BCR (N-terminal fusion partner of the oncoprotein); expressed in transfected cells; host or cells: Ba/F3 (lentiviral transduction, monoclonal line)
Outline: as §1

K562 cells = assay: Cell growth inhibitory activity assay (CellTiter-Glo), K562 cells; conditions: Homo sapiens, 72 h, CTG cell viability
Outline: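 Growth inhibition of human K562 cells, sourced from Nanjing Kebai (CBP60529), was assessed with Promega's CellTiter-Glo kit, which measures viability through ATP quantification. Log-phase cells went into the inner wells of 96-well plates, with PBS in edge wells, incubated overnight at 37 °C and 5% CO2, then exposed to serially diluted compound for 72 h.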

Ba/F3 parental cells = assay: Cell growth inhibitory activity assay (CellTiter-Glo), Ba/F3 parental cells; conditions: Mus musculus, BaF3, 72 h, CTG cell viability, read-out: IC50 Ba/F3 BCR-ABL1 Parental
Outline: as §1

Row | IC50 (K562 cells) [nM] | Compound | IC50 (Ba/F3 BCR-ABL1 T315I) [nM] | IC50 (Ba/F3 BCR-ABL1 WT) [nM] | IC50 (Ba/F3 parental cells) [nM]
1 | ≤ 5 | CC(C)n1cnc2cc(C(=O)Nc3ccc(OC(F)(F)Cl)cc3)cc(-c3cnc4c(c3)-c3n[nH]cc3C4)c21 [T-119, N-(4-(chlorodifluoromethoxy)phenyl)-7-(2,4-dihvdropyrazolo[3',4':3,4]cyclopenta[1,2-b]pyridin-7-yl)-1-isopropyl-1H-benzo[d]imidazole-5-carboxamide] | 5 to 50 | ≤ 5 | > 1000
2 | ≤ 5 | CC(C)n1cnc2cc(C(=O)Nc3ccc(OC(F)(F)Cl)cc3)cc(-c3cnc4c(c3)-c3nn(-c5ncc(F)cn5)cc3C4)c21 [T-121, N-(4-(chlorodifluoromethoxy)phenyl)-7-(2-(5-fluoropyrimidin-2-yl)-2,4-dihydropyrazolo[3',4':3,4]cyclopenta[1,2-b]pyridin-7-yl)-1-isopropyl-1H-benzo[d]imidazole-5-carboxamide] | ≤ 5 | ≤ 5 | > 1000
3 | ≤ 5 | C[C@@H]1COCc2nc3cc(C(=O)Nc4ccc(OC(F)(F)Cl)cc4)cc(-c4cnc5c(c4)-c4nn(C)cc4C5)c3n21 [T-16, (R)-N-(4-(chlorodifluoromethoxy)phenyl)-4-methyl-6-(2-methyl-2,4-dihydropyrazolo[3',4':3,4]cyclopenta[1,2-b]pyridin-7-yl)-3,4-dihydro-1H-benzo[4,5]imidazo[2,1-c][1,4]oxazine-8-carboxamide] | ≤ 5 | ≤ 5 | > 1000
4 | ≤ 5 | O=C(Nc1ccc(OC(F)(F)Cl)cc1)c1cc2c(c(-c3cnc4c(c3)-c3nn(-c5ncccn5)cc3C4)c1)C1(CCCCC1)C(=O)N2 [T-126, N-(4-(chlorodifluoromethoxy)phenyl)-4'-(2-(pyrimidin-2-yl)-2,4-dihydropyrazolo[3',4':3,4]cyclopenta[1,2-b]pyridin-7-yl)-2'-oxospiro[cyclohexane-1,3'-indoline]-6'-carboxamide] | ≤ 5 | ≤ 5 | > 1000
5 | ≤ 5 | C[C@@H]1COCc2nc3cc(C(=O)Nc4ccc(OC(F)(F)Cl)cc4)cc(-c4ccc5c(c4)-c4nn(-c6ncccn6)cc4C5)c3n21 [T-109] | ≤ 5 | ≤ 5 | > 1000
6 | ≤ 5 | C[C@@H]1COCc2nc3cc(C(=O)Nc4ccc(OC(F)(F)Cl)cc4)cc(-c4cnc5c(c4)-c4nn(-c6nccc(C(F)(F)F)n6)cc4C5)c3n21 [T-72, (R)-N-(4-(chlorodifluoromethoxy)phenyl)-4-methyl-6-(2-(4-(trifluoromethyl)pyrimidin-2-yl)-2,4-dihydropyrazolo[3',4':3,4]cyclopenta[1,2-b]pyridin-7-yl)-3,4-dihydro-1H-benzo[4,5]imidazo[2,1-c][1,4]oxazine-8-carboxamide] | ≤ 5 | ≤ 5 | > 1000

Row | Compound | IC50 (K562 cells) [nM] | IC50 (Ba/F3 BCR-ABL1 T315I) [nM] | IC50 (Ba/F3 BCR-ABL1 WT) [nM] | IC50 (Ba/F3 parental cells) [nM]
7 | C[C@@H]1CCOc2nc3cc(C(=O)Nc4ccc(OC(F)(F)Cl)cc4)cc(-c4cnc5c(c4)C(=O)N(C)C5)c3n21 [T-24, (R)-N-(4-(chlorodifluoromethoxy)phenyl)-4-methyl-6-(6-methyl-5-oxo-6,7-dihydro-5H-pyrrolo[3,4-b]pyridin-3-yl)-3,4-dihydro-2H-benzo[4,5]imidazo[2,1-b][1,3]oxazine-8-carboxamide] | ≤ 5 | 50 to 1000 | 5 to 50 | > 1000
8 | CC1(C)C(=O)Nc2cc(C(=O)Nc3ccc(OC(F)(F)Cl)cc3)cc(-c3cnc4c(c3)-c3n[nH]cc3C4)c21 [T-122, N-(4-(chlorodifluoromethoxy)phenyl)-4-(2,4-dihydropyrazolo[3',4':3,4]cyclopenta[1,2-b]pyridin-7-yl)-3,3-dimethyl-2-oxoindoline-6-carboxamide] | ≤ 5 | 5 to 50 | ≤ 5 | > 1000
